For one assay, the system named is KB. The experiment in a line: Cytotoxicity against human KB cells. The assay is classed as functional.
Another assay concerns P388. The experiment in a line: In vivo antitumor activity against mouse P388 cells at 0.1 to 1.6 ug/kg. The assay is classed as functional.

For the compound `COc1cc2cc(c1Cl)N1CC(=O)C(C)(O)C(=O)N(C)[C@@H](C)C(=O)O[C@@H](CC1=O)[C@@]1(C)O[C@H]1[C@H](C)[C@@H]1C[C@@](O)(NC(=O)O1)[C@H](OC)/C=C/C=C(\C)C2` (some centres not stated) [MAYTANBICYCLINOL], the ED50 in the assay on KB is <1 ×10⁻⁵ ug/ml. Also, in the assay with P388, the T/C (in general, the ratio of treated to control) worked out at 140%.

The values above are taken from ChEMBL document CHEMBL1157274, “Two new maytansinoids from maytenus buchananii” (1999).
